Biological target: T1, human 11βHSD1 enzyme (Homo sapiens, UniProt P28845)
T1 construct: N terminal 6-His tagged full length human 11βHSD1 enzyme; 6-His (N); made in house
Assay: 11βHSD1 competitive HTRF assay (conversion of cortisone to cortisol)
Format: biochemical
Conditions: recombinant N terminal 6-His tagged full length human 11βHSD1; cortisone 160 nM; 25 minutes at 37° C.; pH 7.5
Experimental: The evaluation of compounds described herein was carried out using a baculovirus expressed N terminal 6-His tagged full length human 11βHSD1 enzyme (*1). The enzyme was purified from a detergent solublised cell lysate, using a copper chelate column. Inhibitors of 11βHSD1 reduce the conversion of cortisone to cortisol, which is identified by an increase in signal, in the above assay.
Compounds to be tested were dissolved in dimethyl sulphoxide (DMSO) to 10 mM and diluted further in assay buffer containing 1% DMSO to 10 fold the final assay concentration. Diluted compounds were then plated into black 384 well plates (Matrix, Hudson N.H., USA).
The assay plates were incubated for 25 minutes at 37° C. after which time the reaction was stopped by the addition of 10 μl of 0.5 mM glycerrhetinic acid plus conjugated cortisol (D2**). 10 μl of anti-cortisol Cryptate was then added and the plates sealed and incubated for 6 hours at room temperature. Fluorescence at 665 nm and 620 nm was measured and the 665 nm:620 nm ratio calculated using an Envision plate reader.
**D2 is a cortisol tracer which competes with native cortisol produced in the reaction for the monoclonal anti-cortisol antibody labelled with europium-cryptate. The antibody will fluoresce when it is bound to the cortisol tracer complex (D2 labelled with cortisol and glycyrrhetinic acid coupled together). Thus providing an accurate measure of 11beta-HSD1 activity.

T1 sequence (P28845 whole entry): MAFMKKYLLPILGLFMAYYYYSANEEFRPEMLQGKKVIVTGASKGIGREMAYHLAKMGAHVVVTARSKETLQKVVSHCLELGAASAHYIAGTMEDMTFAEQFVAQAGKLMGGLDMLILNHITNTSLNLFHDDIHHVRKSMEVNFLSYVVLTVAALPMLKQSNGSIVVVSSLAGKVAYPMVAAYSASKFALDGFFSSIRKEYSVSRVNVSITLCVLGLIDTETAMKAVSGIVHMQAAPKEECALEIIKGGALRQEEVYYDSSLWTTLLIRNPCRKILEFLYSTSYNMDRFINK

Structure (SMILES) | IC50
O=C(N[C@H]1C2CC3CC1C[C@@](O)(C3)C2)c1cnc(NC2CCS(=O)(=O)C2)nc1C1CCCC1 (stereo partly drawn) [Example 5, 4-cyclopentyl-2-[(1,1-dioxothiolan-3-yl)amino]-N-(5-hydroxy-2-adamantyl)pyrimidine-5-carboxamide] | 24 nM
CN1CC(Nc2ncc(C(=O)N[C@H]3C4CC5CC3C[C@@](O)(C5)C4)c(C3CCCC3)n2)CC1=O (stereo partly drawn) [Example 16, 4-cyclopentyl-N-(5-hydroxy-2-adamantyl)-2-[(1-methyl-5-oxo-pyrrolidin-3-yl)amino]pyrimidine-5-carboxamide] | 20 nM
CCN1CC(Nc2ncc(C(=O)N[C@H]3C4CC5CC3C[C@@](O)(C5)C4)c(C3CCCC3)n2)CC1=O (stereo partly drawn) [Example 17, 4-cyclopentyl-2-[(1-ethyl-5-oxo-pyrrolidin-3-yl)amino]-N-(5-hydroxy-2-adamantyl)pyrimidine-5-carboxamide] | 15 nM
CN1C(=O)CC[C@@H]1CNc1ncc(C(=O)N[C@H]2C3CC4CC2C[C@@](O)(C4)C3)c(C2CCCC2)n1 [Example 18, 4-cyclopentyl-N-(5-hydroxy-2-adamantyl)-2-[[(2R)-1-methyl-5-oxo-pyrrolidin-2-yl]methylamino]pyrimidine-5-carboxamide] | 23 nM
O=C(N[C@H]1C2CC3CC1C[C@@](O)(C3)C2)c1cnc(N[C@@H]2CCOC2)nc1N1CCCC1 [Example 37, N-(5-hydroxy-2-adamantyl)-4-pyrrolidin-1-yl-2-[[(3R)-tetrahydrofuran-3-yl]amino]pyrimidine-5-carboxamide] | 777 nM
CN(C(=O)c1cnc(N[C@@H]2CCOC2)nc1C1CCCC1)[C@H]1C2CC3CC1C[C@@](O)(C3)C2 [Example 41, 4-Cyclopentyl-N-(5-hydroxy-2-adamantyl)-N-methyl-2-[[(3R)-oxolan-3-yl]amino]pyrimidine-5-carboxamide] | 46 nM
CN(C(=O)c1cnc(N[C@H]2CCOC2)nc1C1CCCC1)[C@H]1C2CC3CC1C[C@@](O)(C3)C2 [Example 42, 4-cyclopentyl-N-(5-hydroxy-2-adamantyl)-N-methyl-2-[[(3S)-oxolan-3-yl]amino]pyrimidine-5-carboxamide] | 32 nM
NC(=O)[C@]12CC3CC(C1)[C@H](NC(=O)c1cnc(N[C@H]4CCOC4)nc1C1CCCC1)C(C3)C2 [Example 43, N-(5-carbamoyl-2-adamantyl)-4-cyclopentyl-2-[[(3S)-tetrahydrofuran-3-yl]amino]pyrimidine-5-carboxamide] | 17 nM
O=C(N[C@H]1C2CC3CC1C[C@@](C(=O)O)(C3)C2)c1cnc(N[C@H]2CCOC2)nc1C1CCCC1 [Example 44, 4-[[4-cyclopentyl-2-[[(3S)-tetrahydrofuran-3-yl]amino]pyrimidine-5-carbonyl]amino]adamantane-1-carboxylic acid] | 424 nM
CS(=O)(=O)[C@]12CC3CC(C1)[C@H](NC(=O)c1cnc(N[C@H]4CCOC4)nc1C1CCCC1)C(C3)C2 [Example 45, 4-cyclopentyl-N-(5-methylsulfonyl-2-adamantyl)-2-[[(3S)-tetrahydrofuran-3-yl]amino]pyrimidine-5-carboxamide] | 273 nM

Continued, values first:

IC50 | Structure (SMILES)
46 nM | CC(C)c1nc(N[C@H]2CCOC2)ncc1C(=O)N[C@H]1C2CC3CC1C[C@@](O)(C3)C2 [Example 20, N-(5-hydroxy-2-adamantyl)-4-isopropyl-2-[[(3S)-tetrahydrofuran-3-yl]amino]pyrimidine-5-carboxamide]
42 nM | CC(C)c1nc(N[C@@H]2CCOC2)ncc1C(=O)N[C@H]1C2CC3CC1C[C@@](O)(C3)C2 [Example 21, N-(5-hydroxy-2-adamantyl)-4-isopropyl-2-[[(3R)-tetrahydrofuran-3-yl]amino]pyrimidine-5-carboxamide]
25 nM | O=C(N[C@H]1C2CC3CC1C[C@@](O)(C3)C2)c1cnc(N[C@@H]2CCOC2)nc1C(F)(F)F [Example 22, N-(5-hydroxy-2-adamantyl)-2-[[(3R)-oxolan-3-yl]amino]-4-(trifluoromethyl)pyrimidine-5-carboxamide]
95 nM | O=C(N[C@H]1C2CC3CC1C[C@@](O)(C3)C2)c1cnc(N[C@H]2CCOC2)nc1C(F)(F)F [Example 23, N-(5-hydroxy-2-adamantyl)-2-[[(3S)-oxolan-3-yl]amino]-4-(trifluoromethyl)pyrimidine-5-carboxamide]
45 nM | CCOc1nc(N[C@@H]2CCOC2)ncc1C(=O)N[C@H]1C2CC3CC1C[C@@](O)(C3)C2 [Example 24, 4-Ethoxy-N-(5-hydroxy-2-adamantyl)-2-[[(3R)-tetrahydrofuran-3-yl]amino]pyrimidine-5-carboxamide]
37 nM | CCOc1nc(N[C@H]2CCOC2)ncc1C(=O)N[C@H]1C2CC3CC1C[C@@](O)(C3)C2 [Example 25, 4-Ethoxy-N-(5-hydroxy-2-adamantyl)-2-[[(3S)-tetrahydrofuran-3-yl]amino]pyrimidine-5-carboxamide]
19 nM | CCCOc1nc(N[C@@H]2CCOC2)ncc1C(=O)NC1C2CC3CC1CC(O)(C3)C2 (stereo partly drawn) [Example 33, N-(5-hydroxy-2-adamantyl)-4-propoxy-2-[[(3R)-tetrahydrofuran-3-yl]amino]pyrimidine-5-carboxamide]
21 nM | CCCOc1nc(N[C@H]2CCOC2)ncc1C(=O)N[C@H]1C2CC3CC1C[C@@](O)(C3)C2 [Example 34, N-(5-hydroxy-2-adamantyl)-4-propoxy-2-[[(3S)-tetrahydrofuran-3-yl]amino]pyrimidine-5-carboxamide]
1600 nM | O=C(N[C@H]1C2CC3CC1C[C@@](O)(C3)C2)c1cnc(N[C@H]2CCOC2)nc1N1CCCC1 [Example 38, N-(5-hydroxy-2-adamantyl)-4-pyrrolidin-1-yl-2-[[(3S)-tetrahydrofuran-3-yl]amino]pyrimidine-5-carboxamide]
708 nM | O=C(N[C@H]1C2CC3CC1C[C@@](O)(C3)C2)c1cnc(N[C@@H]2CCOC2)nc1-n1cccn1 [Example 39, N-(5-hydroxy-2-adamantyl)-4-pyrazol-1-yl-2-[[(3R)-tetrahydrofuran-3-yl]amino]pyrimidine-5-carboxamide]
2270 nM | O=C(N[C@H]1C2CC3CC1C[C@@](O)(C3)C2)c1cnc(N[C@H]2CCOC2)nc1-n1cccn1 [Example 40, N-(5-hydroxy-2-adamantyl)-4-pyrazol-1-yl-2-[[(3S)-tetrahydrofuran-3-yl]amino]pyrimidine-5-carboxamide]

Reference: patent US20110092526A1, “Adamantyl Iminocarbonyl-Substituted Pyrimidines As Inhibitors Of 11-Beta-HSD1 826” (ASTRAZENECA AB, priority 2009, published 2011)
